# Experimental data as given in PMC9862743 (Pharmaceuticals, 2022).
# “Also recorded” adds a separate entry of the source.
# How the values were obtained:
# [1] = target: T1, HER2 (Homo sapiens, UniProt P04626); test: HotSpot in vitro kinase assay, HER2; type: biochemical; settings: single dose 10 µM compound, 10 µM ATP
# T1 construct: purchased Reaction Biology Corp
# [2] = target: T2, EGFR (Homo sapiens, UniProt P00533); test: HotSpot in vitro kinase assay, EGFR; type: biochemical; settings: for inhibition at 10 µM: single dose 10 µM compound, 10 µM ATP
# T2 construct: purchased Reaction Biology Corp
# [3] = target: T3, CDK2/cyclin A (Homo sapiens, UniProt P24941); test: Kinase selectivity panel, CDK2/cyclin A; type: biochemical; settings: single dose 10 µM
# T3 construct: purchased Reaction Biology Corp
# [4] = target: T4, P38a/MAPK14 (Homo sapiens, UniProt Q16539); test: Kinase selectivity panel, P38a/MAPK14; type: biochemical; settings: single dose 10 µM
# T4 construct: purchased Reaction Biology Corp
# [5] = target: T5, KDR/VEGFR2 (Homo sapiens, UniProt P35968); test: Kinase selectivity panel, KDR/VEGFR2; type: biochemical; settings: single dose 10 µM
# T5 construct: purchased Reaction Biology Corp
# [6] = target: T6, FGFR1 (Homo sapiens, UniProt P11362); test: Kinase selectivity panel, FGFR1; type: biochemical; settings: single dose 10 µM
# T6 construct: purchased Reaction Biology Corp
# [7] = target: T7, c-MET (Homo sapiens, UniProt P08581); test: Kinase selectivity panel, c-MET; type: biochemical; settings: single dose 10 µM
# T7 construct: purchased Reaction Biology Corp
# T7 sequence (P08581 25-1390): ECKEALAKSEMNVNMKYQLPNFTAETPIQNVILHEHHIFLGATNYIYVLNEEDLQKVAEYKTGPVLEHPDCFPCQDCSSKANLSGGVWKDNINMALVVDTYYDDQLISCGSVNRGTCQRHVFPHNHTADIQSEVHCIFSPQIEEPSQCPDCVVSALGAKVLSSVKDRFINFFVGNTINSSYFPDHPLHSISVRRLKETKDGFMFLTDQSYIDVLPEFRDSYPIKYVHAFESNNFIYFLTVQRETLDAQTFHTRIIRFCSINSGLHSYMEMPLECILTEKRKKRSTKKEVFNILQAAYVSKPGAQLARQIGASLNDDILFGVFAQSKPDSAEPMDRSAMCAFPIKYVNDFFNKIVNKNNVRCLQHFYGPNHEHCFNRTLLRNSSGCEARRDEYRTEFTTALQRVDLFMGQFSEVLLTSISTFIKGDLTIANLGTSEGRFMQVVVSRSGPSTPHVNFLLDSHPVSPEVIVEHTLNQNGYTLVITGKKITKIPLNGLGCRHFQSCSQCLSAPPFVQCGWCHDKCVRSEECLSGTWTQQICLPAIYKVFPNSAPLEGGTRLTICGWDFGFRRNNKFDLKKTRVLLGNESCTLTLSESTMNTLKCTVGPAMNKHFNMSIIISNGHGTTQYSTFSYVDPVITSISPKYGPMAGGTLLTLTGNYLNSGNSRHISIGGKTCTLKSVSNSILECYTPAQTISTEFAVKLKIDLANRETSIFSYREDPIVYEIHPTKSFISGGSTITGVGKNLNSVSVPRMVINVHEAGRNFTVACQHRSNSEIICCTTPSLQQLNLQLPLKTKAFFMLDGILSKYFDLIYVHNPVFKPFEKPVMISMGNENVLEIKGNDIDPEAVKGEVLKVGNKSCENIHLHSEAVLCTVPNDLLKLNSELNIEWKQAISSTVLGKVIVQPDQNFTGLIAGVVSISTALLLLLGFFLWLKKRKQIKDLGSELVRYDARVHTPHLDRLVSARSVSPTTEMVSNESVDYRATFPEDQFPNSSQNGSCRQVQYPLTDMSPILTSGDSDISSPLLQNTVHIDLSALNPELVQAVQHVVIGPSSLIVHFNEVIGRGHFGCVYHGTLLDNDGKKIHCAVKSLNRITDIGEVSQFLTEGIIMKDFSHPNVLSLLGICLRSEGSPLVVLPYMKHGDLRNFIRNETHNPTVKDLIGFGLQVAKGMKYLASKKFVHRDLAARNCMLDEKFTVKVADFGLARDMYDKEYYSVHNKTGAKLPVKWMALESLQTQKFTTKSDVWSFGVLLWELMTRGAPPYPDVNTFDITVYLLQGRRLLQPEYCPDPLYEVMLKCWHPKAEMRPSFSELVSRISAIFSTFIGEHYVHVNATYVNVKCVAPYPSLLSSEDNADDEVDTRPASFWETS
# T2 sequence (P00533 25-1210): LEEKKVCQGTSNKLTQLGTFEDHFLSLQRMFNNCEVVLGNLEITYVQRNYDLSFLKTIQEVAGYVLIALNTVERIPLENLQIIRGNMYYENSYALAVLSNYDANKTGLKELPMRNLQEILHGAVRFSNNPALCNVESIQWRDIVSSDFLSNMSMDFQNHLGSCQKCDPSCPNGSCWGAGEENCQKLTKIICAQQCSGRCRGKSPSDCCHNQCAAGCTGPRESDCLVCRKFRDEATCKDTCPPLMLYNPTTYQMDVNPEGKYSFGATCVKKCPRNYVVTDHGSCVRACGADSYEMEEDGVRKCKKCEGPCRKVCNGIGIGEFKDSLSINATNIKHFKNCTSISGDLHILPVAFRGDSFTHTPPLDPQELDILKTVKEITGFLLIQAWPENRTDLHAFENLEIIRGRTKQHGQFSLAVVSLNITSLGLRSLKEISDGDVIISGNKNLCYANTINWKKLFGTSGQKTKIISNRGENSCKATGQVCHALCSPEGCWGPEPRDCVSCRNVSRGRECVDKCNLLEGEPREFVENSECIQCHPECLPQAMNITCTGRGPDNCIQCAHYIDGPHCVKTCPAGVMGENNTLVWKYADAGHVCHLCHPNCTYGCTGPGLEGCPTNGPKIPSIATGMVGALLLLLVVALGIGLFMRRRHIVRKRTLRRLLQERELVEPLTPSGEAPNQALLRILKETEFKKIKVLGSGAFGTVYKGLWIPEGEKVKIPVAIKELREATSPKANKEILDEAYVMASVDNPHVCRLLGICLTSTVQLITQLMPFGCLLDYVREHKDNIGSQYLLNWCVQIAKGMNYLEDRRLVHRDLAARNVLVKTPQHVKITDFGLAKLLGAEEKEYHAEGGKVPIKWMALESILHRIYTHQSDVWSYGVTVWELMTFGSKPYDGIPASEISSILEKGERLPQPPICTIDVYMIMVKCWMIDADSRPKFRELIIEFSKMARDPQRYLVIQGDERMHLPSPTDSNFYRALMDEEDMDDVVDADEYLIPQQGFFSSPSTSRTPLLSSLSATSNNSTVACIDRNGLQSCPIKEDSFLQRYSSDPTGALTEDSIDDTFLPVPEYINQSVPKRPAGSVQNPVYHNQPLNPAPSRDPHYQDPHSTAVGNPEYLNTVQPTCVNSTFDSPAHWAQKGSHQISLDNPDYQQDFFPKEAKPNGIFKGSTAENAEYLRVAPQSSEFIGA
# T5 sequence (P35968 20-1356): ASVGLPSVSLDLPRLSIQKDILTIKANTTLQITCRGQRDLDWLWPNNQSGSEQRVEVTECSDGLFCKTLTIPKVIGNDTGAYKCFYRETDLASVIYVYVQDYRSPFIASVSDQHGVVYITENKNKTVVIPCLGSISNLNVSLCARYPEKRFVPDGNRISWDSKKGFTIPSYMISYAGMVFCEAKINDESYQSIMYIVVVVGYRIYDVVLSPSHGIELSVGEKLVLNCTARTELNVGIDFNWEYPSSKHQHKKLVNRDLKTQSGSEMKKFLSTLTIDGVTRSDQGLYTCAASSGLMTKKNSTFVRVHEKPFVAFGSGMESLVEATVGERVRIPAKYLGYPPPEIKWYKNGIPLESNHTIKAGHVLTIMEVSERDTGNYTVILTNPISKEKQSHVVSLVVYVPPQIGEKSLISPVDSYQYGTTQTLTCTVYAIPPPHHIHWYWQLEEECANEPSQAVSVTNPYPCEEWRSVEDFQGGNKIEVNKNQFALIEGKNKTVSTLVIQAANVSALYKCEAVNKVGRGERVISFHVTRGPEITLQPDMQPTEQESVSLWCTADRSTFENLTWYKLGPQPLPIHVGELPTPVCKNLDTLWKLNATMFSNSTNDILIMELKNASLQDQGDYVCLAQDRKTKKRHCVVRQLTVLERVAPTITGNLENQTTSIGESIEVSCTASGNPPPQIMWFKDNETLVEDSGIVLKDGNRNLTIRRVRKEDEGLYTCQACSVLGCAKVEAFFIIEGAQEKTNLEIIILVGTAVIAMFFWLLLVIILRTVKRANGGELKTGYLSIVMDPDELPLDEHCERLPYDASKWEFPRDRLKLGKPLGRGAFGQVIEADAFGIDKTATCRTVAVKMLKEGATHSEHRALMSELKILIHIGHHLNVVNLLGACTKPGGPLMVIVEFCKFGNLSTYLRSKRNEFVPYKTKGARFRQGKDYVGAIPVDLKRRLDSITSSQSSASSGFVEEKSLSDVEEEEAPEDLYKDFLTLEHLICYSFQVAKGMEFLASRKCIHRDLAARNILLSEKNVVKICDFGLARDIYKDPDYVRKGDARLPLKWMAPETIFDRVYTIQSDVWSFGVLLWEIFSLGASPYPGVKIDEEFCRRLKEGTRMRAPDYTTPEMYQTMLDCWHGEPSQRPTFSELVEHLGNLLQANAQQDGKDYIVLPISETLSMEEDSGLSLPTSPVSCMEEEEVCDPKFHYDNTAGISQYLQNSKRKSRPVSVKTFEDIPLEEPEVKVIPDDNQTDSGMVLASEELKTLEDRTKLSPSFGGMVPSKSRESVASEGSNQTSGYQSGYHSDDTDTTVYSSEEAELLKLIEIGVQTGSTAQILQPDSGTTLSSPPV
# T1 sequence (P04626 23-1255): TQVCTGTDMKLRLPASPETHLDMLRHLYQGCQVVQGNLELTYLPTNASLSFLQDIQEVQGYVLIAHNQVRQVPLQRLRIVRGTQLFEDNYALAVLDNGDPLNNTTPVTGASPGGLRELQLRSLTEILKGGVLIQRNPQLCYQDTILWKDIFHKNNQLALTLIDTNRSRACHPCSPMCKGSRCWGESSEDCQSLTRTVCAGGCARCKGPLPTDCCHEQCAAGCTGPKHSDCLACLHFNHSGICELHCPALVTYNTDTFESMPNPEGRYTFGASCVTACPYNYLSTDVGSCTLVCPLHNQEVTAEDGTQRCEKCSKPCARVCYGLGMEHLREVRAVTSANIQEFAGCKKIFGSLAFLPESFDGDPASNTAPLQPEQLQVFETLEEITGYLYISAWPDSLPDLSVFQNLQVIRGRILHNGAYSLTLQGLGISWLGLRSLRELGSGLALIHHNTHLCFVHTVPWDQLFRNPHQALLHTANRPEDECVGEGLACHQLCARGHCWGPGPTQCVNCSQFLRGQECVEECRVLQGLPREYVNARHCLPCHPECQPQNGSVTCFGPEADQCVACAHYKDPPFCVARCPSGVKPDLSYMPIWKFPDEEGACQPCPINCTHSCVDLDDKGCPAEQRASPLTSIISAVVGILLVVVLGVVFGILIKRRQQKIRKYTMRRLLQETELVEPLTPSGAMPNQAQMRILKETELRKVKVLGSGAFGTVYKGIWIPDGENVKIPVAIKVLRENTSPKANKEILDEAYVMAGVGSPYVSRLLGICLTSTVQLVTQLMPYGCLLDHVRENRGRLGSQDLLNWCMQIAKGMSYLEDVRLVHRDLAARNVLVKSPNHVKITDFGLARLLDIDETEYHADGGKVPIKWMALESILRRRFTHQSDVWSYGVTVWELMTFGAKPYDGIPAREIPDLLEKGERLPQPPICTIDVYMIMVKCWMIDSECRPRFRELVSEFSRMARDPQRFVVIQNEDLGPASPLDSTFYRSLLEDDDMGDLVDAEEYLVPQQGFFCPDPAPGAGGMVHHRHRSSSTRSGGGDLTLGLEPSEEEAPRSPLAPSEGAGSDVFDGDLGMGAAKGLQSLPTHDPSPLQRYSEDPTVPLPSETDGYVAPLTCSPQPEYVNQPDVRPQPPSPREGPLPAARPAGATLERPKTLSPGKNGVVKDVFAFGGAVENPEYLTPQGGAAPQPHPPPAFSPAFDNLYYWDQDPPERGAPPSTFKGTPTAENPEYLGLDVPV
inhibition at 10 µM [1] [%],melting point [°C],inhibition at 10 µM [2] [%],SMILES,further results
79.7,176 to 177,99.1,"COc1cc2ncnc(Nc3ccc4ncccc4c3)c2cc1OCCCCCCn1ccnc1[N+](=O)[O-] [Compound 6d, 7-Methoxy-6-((6-(2-nitro-1H-imidazol-1-yl)hexyl)oxy)-N-(quinolin-6-yl)quinazolin-4-amine]",–
74.7,249 to 250,98.8,"COc1cc2ncnc(Nc3ccc4ncccc4c3)c2cc1OCCCn1ccnc1[N+](=O)[O-] [Compound 6a, 7-Methoxy-6-(3-(2-nitro-1H-imidazol-1-yl)propoxy)-N-(quinolin-6-yl)quinazolin-4-amine]",–
43.1,196 to 197,91.8,"COc1cc2ncnc(Nc3ccc(C#N)cc3)c2cc1OCCCCCn1ccnc1[N+](=O)[O-] [Compound 6g, 4-((7-Methoxy-6-((5-(2-nitro-1H-imidazol-1-yl)pentyl)oxy)quinazolin-4-yl)amino)benzonitrile]",–
90,194 to 195,99.3,"COc1cc2ncnc(Nc3ccc4ncccc4c3)c2cc1OCCCCCn1ccnc1[N+](=O)[O-] [Compound 6c, 7-Methoxy-6-((5-(2-nitro-1H-imidazol-1-yl)pentyl)oxy)-N-(quinolin-6-yl)quinazolin-4-amine]",–
87.2,184 to 185,97.7,"COc1cc2ncnc(Nc3ccc(OCc4ccccn4)c(Cl)c3)c2cc1OCCCn1ccnc1[N+](=O)[O-] [Compound 6i, N-(3-Chloro-4-(pyridin-2-ylmethoxy)phenyl)-7-methoxy-6-(3-(2-nitro-1H-imidazol-1-yl)propoxy)quinazolin-4-amine]",–
89,191 to 192,98.6,"COc1cc2ncnc(Nc3ccc(OCc4ccccn4)c(Cl)c3)c2cc1OCCCCCCn1ccnc1[N+](=O)[O-] [Compound 6l, N-(3-Chloro-4-(pyridin-2-ylmethoxy)phenyl)-7-methoxy-6-((6-(2-nitro-1H-imidazol-1-yl)hexyl)oxy)quinazolin-4-amine]",–
47.3,191 to 192,94.7,"COc1cc2ncnc(Nc3ccc(C#N)cc3)c2cc1OCCCCCCn1ccnc1[N+](=O)[O-] [Compound 6h, 4-((7-Methoxy-6-((6-(2-nitro-1H-imidazol-1-yl)hexyl)oxy)quinazolin-4-yl)amino)benzonitrile]",–
91.2,158 to 159,98.6,"COc1cc2ncnc(Nc3ccc(OCc4ccccn4)c(Cl)c3)c2cc1OCCCCCn1ccnc1[N+](=O)[O-] [Compound 6k, N-(3-Chloro-4-(pyridin-2-ylmethoxy)phenyl)-7-methoxy-6-((5-(2-nitro-1H-imidazol-1-yl)pentyl)oxy)quinazolin-4-amine]",–
8.78,245 to 246,67.3,"COc1cc2ncnc(Nc3ccc(C#N)cc3)c2cc1OCCCn1ccnc1[N+](=O)[O-] [Compound 6e, 4-((7-Methoxy-6-(3-(2-nitro-1H-imidazol-1-yl)propoxy)quinazolin-4-yl)amino)benzonitrile]",–

SMILES,inhibition at 10 µM [1] [%],melting point [°C],inhibition at 10 µM [2] [%],further results
"COc1cc2ncnc(Nc3ccc4ncccc4c3)c2cc1OCCCCn1ccnc1[N+](=O)[O-] [Compound 6b, 7-Methoxy-6-(4-(2-nitro-1H-imidazol-1-yl)butoxy)-N-(quinolin-6-yl)quinazolin-4-amine]",78,201 to 202,99.3,–
"COc1cc2ncnc(Nc3ccc(OCc4ccccn4)c(Cl)c3)c2cc1OCCCCn1ccnc1[N+](=O)[O-] [Compound 6j, N-(3-Chloro-4-(pyridin-2-ylmethoxy)phenyl)-7-methoxy-6-(4-(2-nitro-1H-imidazol-1-yl)butoxy)quinazolin-4-amine]",96.7,–,99,"% Kinase Inhibition at 10 µM CDK2/cyclin A [3]: almost no inhibitory activity; also recorded: poor to weak inhibitory activity; inhibition at 10 µM [3]: -0.83%; % Kinase Inhibition at 10 µM P38a/MAPK14 [4]: almost no inhibitory activity; also recorded: poor to weak inhibitory activity; inhibition at 10 µM [4]: -33.3%; % Kinase Inhibition at 10 µM KDR/VEGFR2 [5]: almost no inhibitory activity; also recorded: poor to weak inhibitory activity; inhibition at 10 µM [5]: 10.3%; % Kinase Inhibition at 10 µM FGFR1 [6]: almost no inhibitory activity; also recorded: poor to weak inhibitory activity; inhibition at 10 µM [6]: 13.9%; % Kinase Inhibition at 10 µM c-MET [7]: almost no inhibitory activity; also recorded: poor to weak inhibitory activity; inhibition at 10 µM [7]: 19.3%; IC50 ([2]; 10-dose assay, 3-fold serial dilution starting at 10 µM): 1.8 nM; fold more potent than lapatinib over EGFR ([2]; ratio of EGFR IC50 values): 6 fold; fold more potent than staurosporine over EGFR ([2]; ratio of EGFR IC50 values): 50 fold"
"COc1cc2ncnc(Nc3ccc(C#N)cc3)c2cc1OCCCCn1ccnc1[N+](=O)[O-] [Compound 6f, 4-((7-Methoxy-6-(4-(2-nitro-1H-imidazol-1-yl)butoxy)quinazolin-4-yl)amino)benzonitrile]",11.7,200 to 201,76.5,–
